Where two headings read alike, the source gives them in different places.
How the values were obtained:
[1] = system: promoter of the ygƒCBA operon (Pheme); assay: lacZ reporter (beta-galactosidase, Miller method) induction from pTCV Pheme-ygfC-lacZ plasmid in L. lactis MG1363; assay type: cell-based, Lactococcus lactis; conditions: for fold induction of beta-galactosidase: M17-glucose (1%)
Procedure: The pTCV-lac plasmid was used to transform the L. lactis strain MG1363. The transformants were selected on M17 plus glucose (0.5%) solid medium containing erythromycin 3 μg/ml. Colonies were purified and cells stored at −80° C.
Hemin solution is prepared at 20 mM in 50 mM NaOH, and aliquoted for storage at −20° C.; one tube is used for each assay and is then discarded.
PPIX-Ga solution is prepared at 10 mM in dimethylsulfoxide, and prepared in aliquots for storage at −20° C.; one tube is used for each assay and is then discarded.
The L. lactis cells carrying the plasmid are precultured overnight at 30° C. under non-aeration conditions in M17-glucose (0.5%) medium or BHI-Tris (note that BHI includes 0.2% glucose). The media are supplemented with 3 μg/ml erythromycin to maintain the plasmid.
The following day, the precultures are diluted 100-fold in new M17-glucose (1%) medium or BHI-Tris medium (0.5% final glucose concentration), and containing 3 μg/ml erythromycin. The cultures are grown at 30° C. either under non-aeration conditions (nonagitated cultures in full bottles), or under aeration conditions (cultures in conical flasks with baffles, one tenth full; agitation at 170 rpm in the presence of air). The growth is monitored by measuring the OD600.
The inducer is added either simultaneously with the bacteria, or during growth when the bacteria exit the lag phase (OD600=˜0.1 in M17-glucose [1%] medium, OD600=˜0.2 to 0.3 in BHI-Tris-glucose medium).
Cells are recovered from the cultures at OD600=1, and beta-galactosidase activity of the bacterial extracts is quantified by the Miller method (MILLER, Experiments in molecular genetics. Cold Spring Harbor Laboratory Press, Cold Spring Harbor, N.Y., 1972). In the presence of o-nitrophenyl-β-D-galactoside (ONPG), beta-galactosidase produces yellow-colored O-nitrophenol which can be assayed by measuring the optical density at 420 nm (A420); Beta-galactosidase activity of each sample is measured in Miller units by the following formula: 1000×A420/T(min)×V(ml)×A600. This formula measures activity in a cell sample, such that the value is standardized to the same cell biomass (given as the A600 value).

[2] = system: promoter of the ygƒCBA operon (Pheme); assay: lacZ reporter (beta-galactosidase) induction in Streptococcus agalactiae NEM316; assay type: cell-based; conditions: for amount of inducer resulting in optimal induction: 1 or 10 μM tested; for induction (in words): BHI-Tris-glucose, non-aerated and aerated cultures; for induction of the promoter (in words): summary statement; for induction over background without hemin: M17-glucose, added at OD600 ~0.3, 1 hour
Procedure: The pTCV-lac plasmid was used to transform the Streptococcus agalactiae strain NEM316. The transformants were selected on solid M17-glucose (0.5%) medium containing erythromycin 3 μg/ml.
Hemin and PPIX-Ga solutions are prepared as described in Example 2 above.
The Streptococcus agalactiae cells carrying the plasmid are precultured overnight at 37° C. in M17-glucose (0.2%) and 3 μg/ml erythromycin, or in BHI-Tris medium supplemented with 3 μg/ml erythromycin.
The following day, the precultures are diluted 100-fold in new M17-glucose (1%) medium supplemented with 3 μg/ml erythromycin, or BHI-Tris-glucose (0.5% final concentration), and 3 μg/ml erythromycin. The cultures are grown at 37° C. either under non-aeration conditions or under aeration conditions and growth is monitored by measuring the OD600 as described above for Lactococcus lactis.
The inducer is added during growth when bacteria exit the lag phase (OD600=˜0.25 to 0.3).
Cells are recovered from the cultures at OD600=1, and bacterial beta-galactosidase activity is quantified as described in Example 2 above.

[3] = system: PhemeygƒC inducible system; assay: PHEME-ygƒC-lacZ reporter induction in Lactobacillus casei (BETA-GLO test); assay type: cell-based; conditions: 10 μM hemin; MRS; static or aerated; 1 hour; endogenous background subtracted
Procedure: The pTCV-PhemeygƒC-lacZ plasmid described in Example 1 was used to transform a Lactobacillus casei laboratory strain. Transformants were selected on solid MRS medium containing erythromycin 3 μg/ml.
Hemin was prepared as described in Example 2 above.
The Lactobacillus casei cells carrying the pTCV-PhemeygƒC-lacZ plasmid were precultured overnight at 37° C. in MRS containing 3 μg/ml erythromycin. […] This was used as a control for background due to endogenous beta-galactosidase activity present in this species.
The following day, the precultures were diluted 20-fold in fresh MRS medium supplemented with 3 μg/ml erythromycin. The cultures were grown at 37° C. under static and aeration conditions and growth was monitored by measuring the OD600 as described above for Lactococcus lactis. The hemin inducer (10 μM final concentration) was added during growth once bacteria were in exponential phase (OD600=˜0.4).
Cells in mid exponential phase (OD600=˜0.4) were recovered from the cultures after 1 hour in the presence of the hemin inducer and the volumes were adjusted to a final fixed OD600 for the assay. In this experiment, bacterial beta-galactosidase activity is quantified using the commercially available BETA-GLO test (Promega), following manufacturer instructions.

ygƒCBA operon = conditions: 100 μM heme, cited from earlier work
[4] = BHI-Tris-glucose medium, non-aeration or aeration

Row | Compound | fold induction of beta-galactosidase ([1]; non-aeration (static), 10 or 20 μM added during growth (OD600 ~0.1)) | fold induction of beta-galactosidase ([1]; non-aeration (static), 10 or 20 μM added simultaneously with the bacteria) | induction of the promoter (in words) ([1]; aeration and non-aeration conditions) | amount of inducer resulting in optimal induction [2, 4] | induction (in words) [2] | induction of the promoter (in words) [2] | fold induction of beta-galactosidase ([1]; aeration, inducer added during growth (OD600 ~0.1), cells recovered at OD600=1) | fold induction of beta-galactosidase ([1]; aeration, inducer added simultaneously with the bacteria, cells recovered at OD600=1) | increase of beta-galactosidase expression ([1]; depending on the heme concentration and the culture conditions) | amount of inducer resulting in optimal induction ([2]; M17-glucose medium, non-aeration and aeration) | induction over background without hemin ([2]; aeration conditions) | induction over background without hemin ([2]; non-aeration conditions) | induction of beta-galactosidase (in words) [3] | induction of the ygƒCBA operon (ygƒCBA operon; aeration conditions) | induction of the ygƒCBA operon (ygƒCBA operon; non-aeration conditions)
1 | C=CC1=C(C)C2=[N+]3C1=Cc1c(C)c(C=C)c4[n]1[Ga-]31[n]3c(c(C)c(CCC(=O)O)c3=CC3=[N+]1C(=C4)C(C)=C3CCC(=O)O)=C2 (stereo not drawn) [Ga-PPIX, gallium-protoporphyrin IX] | 120 fold | 90 fold | efficient inducer | 10 µM | efficient | efficient inducers | – | – | – | – | – | – | – | – | –
2 | C=CC1=C(C)c2cc3[n-]c(cc4[n-]c(cc5nc(cc1n2)C(C)=C5C=C)c(C)c4CCC(=O)O)c(CCC(=O)O)c3C.[Cl-].[Fe+3] [hemin] | – | – | – | 1 µM | efficient | efficient inducers | 80 fold | 70 fold | up to 100 fold | 1 µM | more than 150 fold | less than 50 fold | strong induction | up to 50 fold | up to 80 fold
